# Results as given in PMC2206373, “Identification of an altered peptide ligand based on the endogenously presented, rheumatoid arthritis-associated, human cartilage glycoprotein-39(263–275) epitope: an MHC anchor variant peptide for immune modulation” (Arthritis Research & Therapy, 2007).
# Read-outs that look alike come from different tables or passages of the source. No end group written: not given here.
# Columns and labels:
# [1] = test system: popliteal lymph node cells from HC gp-39(263–275)-immunized huCD4, HLA-DR4 transgenic mice; assay: Antigen-specific cytokine production of popliteal lymph node cells from WT peptide-immunized mice; format: cell-based, mouse; details: for IFNγ concentration / MIP1α concentration / RANTES concentration: 96 h supernatant, Luminex
# Description: (§1) Mice, obtained from L Fugger (Oxford, UK), were immunized in the hind footpads with 2 × 50 μg of purified recombinant HC gp-39, with 2 × 100 μg of the WT peptide or with 2 × 100 μg of the APL (F265(Dip); compound 28; Figure 1) mixed in IFA. Seven days later, popliteal lymph node cell suspensions (1 to 2 × 10^5 cells/well) were stimulated in vitro with HC gp-39 (50, 10 or 2 μg/ml), HC gp-39(263–275) or APL (10, 2 and 0.4 μg/ml). At 96 h, 50 μl of culture medium was harvested for analysis of antigen-specific cytokine production using Luminex technology (mouse cytokine 18 Plex Panel, catalogue no. 171-F11181, Biorad, Bio-Rad Laboratories, Hercules, CA, USA). In addition, cultures were labelled with tritiated thymidine (for 18 h) and antigen-specific proliferation was determined. We state that all animal experimentation received ethics approval and animals were treated according to the recognized guidelines.
# [2] = test system: popliteal lymph node cells from HC gp-39(263–275)-immunized huCD4, HLA-DR4 transgenic mice; assay: Antigen-specific proliferation of popliteal lymph node cells from WT peptide-immunized mice; format: cell-based, mouse; details: 96 h, tritiated thymidine, background 407 cpm, SI > 2 positive, SD not above 30%
# Description: as §1
# [3] = test system: T cell hybridoma 8B12; assay: T hybridoma 8B12 IL-2 response; format: cell-based, mouse; details: for Hybridoma response (SI) 8B12: IL-2 by ELISA after 48 h, peptide 10 μg/ml, SI > 2 positive
# Description: (§2) The T cell hybridomas, provided by G Sonderstrup (Stanford, CA, USA), were generated as described. In brief, human CD4, HLA-DRA*101/HLA-DRB*0401 triple transgenic (HLA-DR4trg) mice (devoid of I-Aβ) were immunized in the footpad with 50 μg of purified HC gp-39 mixed in incomplete Freund's adjuvant (IFA). Draining lymph nodes were isolated and T-cell hybridomas were generated by polyethylene glycol fusion of primed and in vitro antigen-restimulated lymph node cells with the AKR BW5147 fusion partner. Following fusion, growth-positive hybridoma wells were screened for reactivity to HC gp-39 and a set of 55 peptides (16 amino acids in length) covering the entire HC gp-39 sequence. HLA-DR4(B1*0401)-restricted hybridomas responsive to both the HC gp-39 protein and the immunodominant epitope 263–275 of HC gp-39 (for example, 5G11, 8B12, 14G11 and 20H5) were cloned, subcloned, characterised and selected for further study.
# (§3) HC gp-39-specific IL-2 production by T hybridomas was measured in wells of round-bottomed microtiter plates. Hybridoma cells (2 to 5 × 10^4) and irradiated APC (0.5 to 1 × 10^5; 12,000 to 16,000 RAD) from the B lymphoblastoid cell line (BLCL) carrying the DRB1*0401 specificity were incubated in 150 μl volumes. Antigen was added in 50 μl volumes to duplicate wells. After 48 h, 100 μl of the culture supernatant was assayed for IL-2 production using a sandwich ELISA with Pharmingen antibodies specific for mouse IL-2. The antigen sensitivity of the hybridomas to both peptide and protein was determined (Figure 2). […] In later assays, an excess of peptide or APL (10 μg/ml), inducing maximal responses in all hybridomas, was tested.
# [4] = test system: popliteal lymph node cells from F265(Dip)-immunized HLA-DR4trg mice; assay: Antigen-specific cytokine production of popliteal lymph node cells from F265(Dip)-immunized mice; format: cell-based, mouse; details: Figure 4b
# Description: as §1
# [5] = molecular target: HLA-DR4(B1*0401) (Homo sapiens, UniProt P01903+P01911, A100K/A169T/F76Y/I96L/K127E/L162R/M171V/N62H/P40V/Q125Y/R42H/S133A/S149N/S66Y/V115G/V209L/W38E); assay: HLA-DR4 competition peptide binding assay; details: competition with biotinylated HA307-319 (Y309F) 50 nM, purified HLA-DR4 30 nM, pH 5, 48 h, room temperature
# Description: HLA-DR bound marker peptide was separated from free marker peptide and the amount of bound marker peptide was detected and quantified by enhanced chemoluminescense. Inhibition curves were generated and the IC50 was determined. The concentration of competitor peptide inducing 50% inhibition of marker peptide binding was determined, and expressed as the 50% inhibitory concentration (IC50 in μM).
# [6] = test system: B1*0101; details: cited from earlier work
# From the text: (§4) Four TCR contact sites (Ala268, Ser269, Glu271 and Thr272) are important for polyclonal T cell activation. No information is available on important residues in the MHC α-chain, but for the β chain information on MHC restriction can be used (data not shown). The peptide does bind to HLA-DRB1*0402, B1*0405 and B1*0101 [7]. […] This leads to the view of the MHC-peptide complex in Figure 3b. Some of these MHC β-chain residues are th ...
# [7] = test system: B1*0405; details: cited from earlier work
# From the text: as §4
# [8] = molecular target: HLA-DRB1*0402 (Homo sapiens, UniProt P01903+P01911, A100E/A169T/F76Y/K127E/L162R/M171V/N62H/P40V/Q125Y/Q99D/R42H/S133A/S149N/S66Y/V209L/W38E); details: cited from earlier work
# From the text: as §4
# [9] = test system: T cell hybridoma 20H5; assay: T hybridoma 20H5 IL-2 response; format: cell-based, mouse; details: for Hybridoma response (SI) 20H5: IL-2 by ELISA after 48 h, peptide 10 μg/ml, DRB1*0401 BLCL as APC, SI > 2 positive
# Description: as §2, §3
# [10] = test system: T cell hybridoma 5G11; assay: T hybridoma 5G11 IL-2 response; format: cell-based, mouse; details: for Hybridoma response (SI) 5G11: IL-2 by ELISA after 48 h, peptide 10 μg/ml, SI > 2 positive
# Description: as §2, §3
# [11] = Figure 4a, WT peptide-immunized HLA-DR4trg mice
# [12] = Figure 2a dose response, IL-2 ELISA after 48 h
sequence,measurement,setting,value
"RSFTLASSETGVG [Compound 1, HC gp-39(263–275)]",Ex vivo recall IFNγ production in words,[1]; [11],significant levels
same,Ex vivo recall Mip1α production in words,[1]; [11],significant levels
same,Ex vivo recall RANTES production in words,[1]; [11],significant levels
same,IFNγ concentration,[1]; peptide 0.4 μg/ml,<5 pg/mL
same,MIP1α concentration,[1]; peptide 0.4 μg/ml,25 pg/mL
same,RANTES concentration,[1]; peptide 0.4 μg/ml,6 pg/mL
same,IFNγ concentration,[1]; peptide 2 μg/ml,6 pg/mL
same,MIP1α concentration,[1]; peptide 2 μg/ml,128 pg/mL
same,RANTES concentration,[1]; peptide 2 μg/ml,13 pg/mL
same,IFNγ concentration,[1]; peptide 10 μg/ml,16 pg/mL
same,MIP1α concentration,[1]; peptide 10 μg/ml,252 pg/mL
same,RANTES concentration,[1]; peptide 10 μg/ml,23 pg/mL
same,Prol (SI),[2]; peptide 0.4 μg/ml,3 SI
same,Prol (SI),[2]; peptide 2 μg/ml,6 SI
same,Prol (SI),[2]; peptide 10 μg/ml,8 SI
same,T hybridoma (SI) 8B12,"[3]; Figure 1, IL-2 production, DRB1*0401 BLCL as APC, duplicate or triplicate, background 16,288 counts, ±30% of WT response = super/partial agonist",19 SI
same,"Peptide concentration for half maximal stimulation (IL-2), 8B12",[3]; [12],0.21 µg/mL
same,Hybridoma response (SI) 8B12,"[3]; Table 1, DRB1*0401 BLCL as APC, background 7,470 counts, representative of at least three experiments",9 SI
same,Hybridoma response (SI) 8B12,"[3]; Table 2, DRB1*0401 BLCL as APC, background 8,773 counts, SD not above 15%",39 SI
same,In vitro recall IFNγ production in words,[4],failed to induce significant levels
same,In vitro recall Mip1α production in words,[4],failed to induce significant levels
same,In vitro recall RANTES production in words,[4],failed to induce significant levels
same,IC50,"[5]; Figure 1, read-out: DRB1*0401 binding IC50",10 nM
same,IC50,"[5]; Table 1, geometric mean of two experiments, read-out: HLA-DR binding IC50",120 nM
same,Binding to HLA-DRB1*0101 in words,[6],does bind
same,Binding to HLA-DRB1*0405 in words,[7],does bind
same,Binding to HLA-DRB1*0402 in words,[8],does bind
same,"Peptide concentration for half maximal stimulation (IL-2), 20H5",[9]; [12],0.02 µg/mL
same,Hybridoma response (SI) 20H5,"[9]; Table 1, background 35,749 counts, representative of at least three experiments",26 SI
same,Hybridoma response (SI) 20H5,"[9]; Table 2, background 290,666 counts, SD not above 15%",5 SI
same,T hybridoma (SI) 5G11,"[10]; Figure 1, IL-2 production, DRB1*0401 BLCL as APC, duplicate or triplicate, background 29,203 counts, ±30% of WT response = super/partial agonist",29 SI
same,"Peptide concentration for half maximal stimulation (IL-2), 5G11",[10]; [12],2 µg/mL
same,Hybridoma response (SI) 5G11,"[10]; Table 1, DRB1*0401 BLCL as APC, background 8,147 counts, representative of at least three experiments",13 SI
same,Hybridoma response (SI) 5G11,"[10]; Table 2, DRB1*0401 BLCL as APC, background 17,238 counts, SD not above 15%",17 SI
